Assay results from BigSolDB 2.1.

Cc1c(-c2ccccc2)oc2c(C(=O)O)cccc2c1=O
solubility (mole fraction)
Details | in DMF | in THF | in acetone | in acetonitrile | in ethanol | in ethyl acetate | in isobutanol | in methanol | in methyl acetate | in n-butyl acetate
278.15 K | 0.0129 | 0.013 | 0.0019 | 0.000211 | 0.00108 | 0.00088 | 0.000942 | 0.000344 | 0.000929 | 0.000947
283.15 K | 0.0165 | 0.0154 | 0.00219 | 0.000247 | 0.00128 | 0.00114 | 0.00118 | 0.000449 | 0.00112 | 0.0011
288.15 K | 0.0213 | 0.0183 | 0.00259 | 0.00031 | 0.00153 | 0.00141 | 0.00143 | 0.000587 | 0.00145 | 0.00125
293.15 K | 0.0259 | 0.0217 | 0.00301 | 0.00037 | 0.00181 | 0.00178 | 0.00175 | 0.000767 | 0.0019 | 0.00141
298.15 K | 0.0321 | 0.0261 | 0.0034 | 0.000458 | 0.00216 | 0.00221 | 0.00214 | 0.00102 | 0.00245 | 0.00158
303.15 K | 0.0399 | 0.0313 | 0.00381 | 0.000542 | 0.00258 | 0.00272 | 0.00261 | 0.00136 | 0.00302 | 0.00178
308.15 K | 0.0485 | 0.0371 | 0.00438 | 0.000641 | 0.00304 | 0.00341 | 0.00313 | 0.00181 | 0.00382 | 0.00197
313.15 K | 0.0587 | 0.0443 | 0.00489 | 0.000768 | 0.00363 | 0.00416 | 0.00376 | 0.00242 | 0.00473 | 0.00221
318.15 K | 0.072 | 0.0517 | 0.00546 | 0.000893 | 0.00431 | 0.00494 | 0.00458 | 0.00316 | 0.0057 | 0.00242
323.15 K | 0.0889 | 0.061 | 0.00617 | 0.00103 | 0.00512 | 0.00594 | 0.0056 | 0.00419 | 0.00673 | 0.00268
